≈ marks a conversion by molar mass, not a printed value. Where two headings read alike, the source gives them in different places.
Columns and labels:
[1] = test system: Novobiocin resistant mutant strain of S. aureus ATCC 13709; assay: Prophylactic efficacy in rat model of S. aureus bone infection; format: in vivo; settings: for Measured bacterial titer, test compound: 20 mg/kg parent drug equivalent, tibia 24 h postinfection; for Prophylactic activity in rat bone infection model (in words): 20 mg/kg, 1 day or 5 days prior to infection
Method: To determine the in vivo activity of bisphosphonated prodrugs of Rifamycin derived antibacterials in comparison to their non-bisphosphonated parents, compounds 18, 19, 48a, 59, 66, 89, 95, 102, 110, 142b and 164 and their parent drug rifabutin were used as prophylactic therapeutics in an animal model of infection. Specifically, a spontaneous Novobiocin resistant mutant strain of S. aureus ATCC 13709 (a clinical osteomyelitis isolate), was grown overnight at 37° C. in brain heart infusion broth (BHIB). After 16 h of growth, cells were subcultured into fresh BHIB and incubated for 4 to 5 h at 37° C. The cells were washed twice with phosphate-buffered saline (PBS) and resuspended in BHIB supplemented with 10% (vol./vol.) fetal bovine serum at a density of approximately 10^10 colony forming units (CFU)/ml (based upon turbidimetry). The suspension was aliquoted and a portion was used to check the CFU count. The culture was stored frozen (−80° C.) and was used without subculture. For use as an inoculum the culture was thawed, diluted in PBS and kept in an ice bath until it was used.
Animals were infected as described by O'Reilly et al. (Antimicrobial Agents and Chemotherapy (1992), 36(12): 2693-97) to generate the bone infection. Female CD rats (age, 57 to 70 days; n=5/group; Charles River, St-Constant, Canada) were anaesthetized by isofluorane before and during the surgery. Following complete induction of anesthesia, the rat was placed ventral side up and hair was shaved from the surgical site. The skin over the leg was cleaned and disinfected (proviodine-ethanol 70%). A longitudinal incision below the knee joint was made in the sagital plane. The incision was made over the bone below the “knee joint” (tibia head or condyle) but not completely extending to the ankle. A high speed drill fitted with a 2 mm bulb bit was used to drill a hole into the medullar cavity of the tibia. Rats were injected intra-tibially with 0.05 ml 5% sodium morrhuate (sclerosing agent) and then with 0.05 ml of S. aureus suspension (ca. 2×10^7 CFU/rat). The hole was sealed by applying a small amount of dry dental cement which immediately absorbs fluids and adheres to the site. The wound was closed using 3 metal skin clips. Moxifloxacin (as a positive control) was injected once at 10 mg/kg intravenously 1 h postinfection in saline, while the Rifabutin derived prodrugs (prepared in 0.9% saline) were injected at the dose indicated in Table 3 as a single intravenous bolus at different time points prior to the infection.
Infected rats were sacrificed by CO2 asphyxiation 24 h postinfection to monitor the bacterial CFU count. Infected tibiae were removed, dissected free of soft tissue, and weighed. The bones were ground, 50 mg of charcoal were added and the powder was resuspended in 5 ml 0.9% NaCl, serially diluted and processed for quantitative cultures. Treatment efficacy was measured in terms of Log viable bacteria (Log CFU per gram of bone). […] The limit of detection is 2 Log CFU. Statistical comparisons of viable bacterial counts for the different treated and untreated groups were performed with the Dunnett's multiple-comparison test. Differences were considered significant when the P value was <0.05 when comparing treated infected animals to the untreated infected ones. The doses used, the amount of time separating the treatment from the time of infection and the treatment outcomes are shown in Table 3.

[2] = test system: S. aureus ATCC 29213; assay: Antibacterial susceptibility (MIC), NCCLS broth microdilution; format: cell-based; settings: for Minimum inhibitory concentration, S. aureus ATCC 29213: CAMHB, 37° C., 18 h; for MIC: Staphylococcus aureus, ATCC29213, 18 h, read-out: Minimum inhibitory concentration, S. aureus ATCC 29213
Method: (§1) Susceptibility of S. aureus strains to the known antibiotics and synthesized compounds was determined by following the guidelines set by NCCLS (M26-A). Compounds were diluted two-fold serially in DMSO and transferred to cation-adjusted Mueller Hinton broth (CAMHB; Becton Dickinson). 50 μL of compounds diluted in CAMHB was mixed with 100 μL of bacteria diluted in CAMHB in 96-well microtiter plates. The final concentration of micro-organisms in the assay was 5×10^5c.f.u. per mL and the final concentration of DMSO in the assay was 1.25%. Assays were set up in duplicate and incubated at 37° C. for 18 h. The lowest concentration of compound that inhibited visible growth was reported as the minimum inhibitory concentration (MIC).

[3] = test system: S. aureus ATCC 13709^A, Novobiocin and Rifampicin resistant variant; assay: as above; format: cell-based; settings: for MIC: Staphylococcus aureus, ATCC13709, read-out: Minimum inhibitory concentration, S. aureus ATCC 13709^A
Method: as §1

[4] = test system: S. aureus ATCC 13709; assay: microbe, parasite or virus in culture; format: cell-based; settings: for Serum dependence of antibacterial activity (in words): MIC with versus without serum; for MIC: Staphylococcus aureus, ATCC13709, 18 h
Method: as §1
Susceptibility testing experiments were also carried out in the presence of serum. These experiments were carried out similar to the susceptibility testing with the following modifications. 75 μL of compounds diluted in CAMHB was mixed with 75 μL of bacteria diluted in 100% serum from any given source (commercial pooled mouse serum (MS) and human serum (HS), Equitech-Bio Inc.) or diluted in 8% purified human serum albumin (HSA) (Calbiochem). The final concentration of animal serum in the assay was 50% and the final concentration of purified human serum albumin in the assay was 4%; the concentrations of all other components were identical to those described for susceptibility testing.

[5] = test system: S. aureus ATCC 13709; assay: microbe, parasite or virus in culture; format: cell-based; settings: for Minimum inhibitory concentration, S. aureus ATCC 13709: CAMHB, 37° C., 18 h; for MIC: Staphylococcus aureus, ATCC13709, 18 h, read-out: Minimum inhibitory concentration, S. aureus ATCC 13709
Method: as §1

[6] = single intravenous bolus 1 day prior to infection
[7] = read-out: Minimum inhibitory concentration, ATCC 13709 + 50% Human Serum
[8] = read-out: Minimum inhibitory concentration, ATCC 13709 + 50% Mouse Serum
[9] = read-out: Minimum inhibitory concentration, ATCC 13709 + 50% Rat Serum

SMILES	Measured bacterial titer, test compound [1, 6]	Minimum inhibitory concentration, S. aureus ATCC 29213 [2]	Minimum inhibitory concentration, S. aureus ATCC 13709^A [3]	Minimum inhibitory concentration, ATCC 13709 + 50% Human Serum [4]	Minimum inhibitory concentration, ATCC 13709 + 50% Mouse Serum [4]	Minimum inhibitory concentration, ATCC 13709 + 50% Rat Serum [4]	Serum dependence of antibacterial activity (in words) [4]	Minimum inhibitory concentration, S. aureus ATCC 13709 [5]	Measured bacterial titer, test compound ([1]; single intravenous bolus 5 days prior to infection)	Prophylactic activity in rat bone infection model (in words) [1]	MIC [2]	MIC [3]	MIC [4, 7]	MIC [4, 8]	MIC [4, 9]	Antibacterial activity (in words, from Table 1) ([5]; S. aureus MIC)	MIC [5]
CCC(=O)OCOC(=O)N[C@@H](CCC(=O)Nc1ccc(CC(P(=O)(O)O)P(=O)(O)O)cc1)C(=O)N(C)CC(=O)O[C@@H]1[C@@H](C)[C@@H](O)[C@@H](C)[C@H](OC(C)=O)[C@H](C)[C@@H](OC)/C=C/O[C@@]2(C)Oc3c(C)c(O)c4c(c3C2=O)C2=NC3(CCN(CC(C)C)CC3)NC2=C(NC(=O)/C(C)=C\C=C\[C@@H]1C)C4=O.N.N [Compound 110]	1.94 ± 0.04 Log CFU/g of bone	8 µg/mL	>128 µg/mL	8 µg/mL	0.125 µg/mL	0.0156 µg/mL	significant increase in antibacterial activity in serum	8 µg/mL									
CCCC(=O)OCCN(CCCCC(P(=O)(O)O)P(=O)(O)O)CC(=O)O[C@@H]1[C@@H](C)[C@@H](O)[C@@H](C)[C@H](OC(C)=O)[C@H](C)[C@@H](OC)/C=C/O[C@@]2(C)Oc3c(C)c(O)c4c(c3C2=O)C2=NC3(CCN(CC(C)C)CC3)NC2=C(NC(=O)/C(C)=C\C=C\[C@@H]1C)C4=O [Compound 48a]	2.53 ± 0.94 Log CFU/g of bone	2 µg/mL (≈ 1.6 µM)	>128 µg/mL	8 µg/mL	2 µg/mL	0.25 µg/mL	significant increase in antibacterial activity in serum	2 µg/mL (≈ 1.6 µM)	2.65 ± 0.85 Log CFU/g of bone	more potent than rifabutin at 5 days							
CCC(=O)OCOC(=O)NCC(=O)OCCN(CCCCC(P(=O)(O)O)P(=O)(O)O)CC(=O)O[C@@H]1[C@@H](C)[C@@H](O)[C@@H](C)[C@H](OC(C)=O)[C@H](C)[C@@H](OC)/C=C/O[C@@]2(C)Oc3c(C)c(O)c4c(c3C2=O)C2=NC3(CCN(CC(C)C)CC3)NC2=C(NC(=O)/C(C)=C\C=C\[C@@H]1C)C4=O [Compound 59]	1.95 ± 0.06 Log CFU/g of bone										0.125 µg/mL (≈ 0.0916 µM)	> 128 µg/mL	0.0625 µg/mL	0.0312 µg/mL	0.008 µg/mL	very low MICs whether in the absence or in the presence of serum	0.125 µg/mL (≈ 0.0916 µM)
CO[C@H]1/C=C/O[C@@]2(C)Oc3c(C)c(O)c4c(c3C2=O)C2=NC3(CCN(CC(C)C)CC3)NC2=C(NC(=O)/C(C)=C\C=C\[C@H](C)[C@H](OC(=O)CN(CCCCC(P(=O)(O)O)P(=O)(O)O)CCNC(=O)OCc2ccc(OC(C)=O)cc2)[C@@H](C)[C@@H](O)[C@@H](C)[C@H](OC(C)=O)[C@@H]1C)C4=O [Compound 66]	1.97 ± 0.05 Log CFU/g of bone						significant increase in antibacterial activity in serum				4 µg/mL (≈ 2.92 µM)	> 128 µg/mL	4 µg/mL	0.125 µg/mL	0.008 µg/mL		4 µg/mL (≈ 2.92 µM)
CCC(=O)OCOC(=O)N(CCCC(P(=O)(O)O)P(=O)(O)O)CCOC(=O)N1C2=C3NC(=O)/C(C)=C\C=C\[C@H](C)[C@H](O)[C@@H](C)[C@@H](O)[C@@H](C)[C@H](OC(C)=O)[C@H](C)[C@@H](OC)/C=C/O[C@@]4(C)Oc5c(C)c(O)c(c(c5C4=O)C2=NC12CCN(CC(C)C)CC2)C3=O [Compound 164]	5.48 ± 0.64 Log CFU/g of bone	4 µg/mL (≈ 3.12 µM)	>128 µg/mL	8 µg/mL	2 µg/mL	0.25 µg/mL	significant increase in antibacterial activity in serum	4 µg/mL (≈ 3.12 µM)		ineffective at 1 day							
